Key:
[1] = molecular target: 5-hydroxytryptamine receptor 4 (Cavia porcellus) (UniProt O70528); experiment: Displacement of [3H]GR113808 from 5HT4 receptor in guinea pig striatal membranes at 1 uM; type: cell membranes; settings: Striatum, Membrane
[2] = molecular target: 5-hydroxytryptamine receptor 4 (Cavia porcellus, UniProt O70528); experiment: Displacement of [3H]GR113808 from 5HT4 receptor in guinea pig striatal membranes; type: cell membranes, Striatum, Membrane
Sequence of 5-hydroxytryptamine receptor 4 (O70528 whole entry): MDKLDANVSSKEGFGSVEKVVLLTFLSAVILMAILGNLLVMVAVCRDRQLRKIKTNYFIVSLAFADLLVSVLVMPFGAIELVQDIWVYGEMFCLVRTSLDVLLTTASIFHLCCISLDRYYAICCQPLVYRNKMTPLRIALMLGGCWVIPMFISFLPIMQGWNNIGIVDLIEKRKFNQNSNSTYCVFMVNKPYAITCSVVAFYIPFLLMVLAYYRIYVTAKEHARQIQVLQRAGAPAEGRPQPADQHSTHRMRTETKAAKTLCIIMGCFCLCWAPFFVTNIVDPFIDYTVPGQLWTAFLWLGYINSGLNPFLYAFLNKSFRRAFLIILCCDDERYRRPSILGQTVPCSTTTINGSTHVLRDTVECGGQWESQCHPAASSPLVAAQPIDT

Sequence of 5-hydroxytryptamine receptor 4 (Cavia porcellus) (O70528 whole entry): as above

Row | inhibition [1] [%] | Ki [2] [µM] | SMILES
1 | 85 | 0.891 | C#CCN1CCC(COc2nc3scc(C)c3n3cccc23)CC1
2 | 87 | 0.129 | Cc1csc2nc(OCC3CCN(C/C=C/I)CC3)c3cccn3c12

Source: ChEMBL document CHEMBL1287647, “Synthesis and characterization of a iodine-125-labeled pyrrolo[1,2-a]thieno[3,2-e]pyrazine and evaluation as a potential 5-HT4R SPECT tracer” (Eur J Med Chem, 2010)
